{"source": "ChEMBL document CHEMBL1143496", "about": "“Privileged structure based ligands for melanocortin receptors--substituted benzylic piperazine derivatives” (Bioorg Med Chem Lett, 2005)"}
{"target": "Melanocortin receptor 4 (Homo sapiens, UniProt P32245)", "sequence (P32245 whole entry)": "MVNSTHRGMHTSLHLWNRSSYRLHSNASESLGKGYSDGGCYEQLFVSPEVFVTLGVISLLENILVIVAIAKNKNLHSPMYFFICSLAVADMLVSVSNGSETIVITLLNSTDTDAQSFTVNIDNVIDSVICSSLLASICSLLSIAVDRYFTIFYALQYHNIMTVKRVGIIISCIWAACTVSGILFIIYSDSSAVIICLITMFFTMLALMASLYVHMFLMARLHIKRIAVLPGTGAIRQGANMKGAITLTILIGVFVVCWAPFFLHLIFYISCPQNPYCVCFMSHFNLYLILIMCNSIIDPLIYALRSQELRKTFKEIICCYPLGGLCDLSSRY", "assay": "Inhibition of [125I]-NDP MSH binding to human Melanocortin 4 receptor", "units": {"Ki": "nM"}}
{"smiles": "CCN(CC)CC(CCCc1ccccc1)N1CCN(C)CC1", "note": "(configuration not stated)", "Ki": 110}
{"smiles": "CCN(CC)CC(c1cccc(C(F)(F)F)c1)N1CCN(C)CC1", "note": "(configuration not stated)", "Ki": 150}
{"smiles": "CC(c1ccccc1)N1CCN(C)CC1", "note": "(configuration not stated)", "Ki": 700}
{"smiles": "CCN(CC)CC(CCc1ccccc1)N1CCN(C)CC1", "note": "(configuration not stated)", "Ki": 130}
{"smiles": "CCN(CC)CC(c1ccc(F)cc1F)N1CCN(C)CC1", "note": "(configuration not stated)", "Ki": 100}
{"smiles": "COC(=O)NCC(c1ccccc1F)N1CCN(C)CC1", "note": "(configuration not stated)", "Ki": 483}
{"smiles": "CCN(CC(c1ccccc1F)N1CCN(C)CC1)C(C)=O", "note": "(configuration not stated)", "Ki": 106}
{"smiles": "CCN(CC)C[C@H](c1ccccc1)N1CCN(C)CC1", "Ki": 190}
{"smiles": "CCN(CC)C(=O)C(c1ccccc1F)N1CCN(C)CC1", "note": "(configuration not stated)", "Ki": 125}
{"smiles": "CCN(CC)CC(c1ccccc1Cl)N1CCN(C)CC1", "note": "(configuration not stated)", "Ki": 70}
{"smiles": "CCN(CC)CC(c1ccccc1C)N1CCN(C)CC1", "note": "(configuration not stated)", "Ki": 70}
{"smiles": "CCN(CC)CC(c1ccccc1F)N1CCN(C)CC1", "note": "(configuration not stated)", "Ki": 20}
{"smiles": "CN1CCN(C(CNS(C)(=O)=O)c2ccccc2F)CC1", "note": "(configuration not stated)", "Ki": 472}
{"smiles": "CCN(CC(c1ccccc1F)N1CCN(C)CC1)C(=O)OC", "note": "(configuration not stated)", "Ki": 261}
{"smiles": "CCN(CC(c1ccccc1F)N1CCN(C)CC1)S(C)(=O)=O", "note": "(configuration not stated)", "Ki": 157}
{"smiles": "CC(=O)NCC(c1ccccc1F)N1CCN(C)CC1", "note": "(configuration not stated)", "Ki": 467}
{"smiles": "CCN(CC)CC(c1ccc(C(F)(F)F)cc1)N1CCN(C)CC1", "note": "(configuration not stated)", "Ki": 200}
{"smiles": "CCN(CC)CC(c1c(F)cccc1F)N1CCN(C)CC1", "note": "(configuration not stated)", "Ki": 150}
{"smiles": "CCN(CC)C[C@@H](c1ccccc1F)N1CCN(C)CC1", "Ki": 111}
{"smiles": "CN1CCN(Cc2ccccc2)CC1", "Ki": 2000}
{"smiles": "CCN(CC)CC(c1ccccc1C(F)(F)F)N1CCN(C)CC1", "note": "(configuration not stated)", "Ki": 40}
{"smiles": "CCN(CC)CC(c1ccccc1OC)N1CCN(C)CC1", "note": "(configuration not stated)", "Ki": 190}
{"smiles": "CCN(CC)CC(Cc1ccccc1)N1CCN(C)CC1", "note": "(configuration not stated)", "Ki": 40}
{"smiles": "CCN(CC)C[C@@H](c1ccccc1)N1CCN(C)CC1", "Ki": 50}
{"smiles": "CCN(CC)C[C@H](c1ccccc1F)N1CCN(C)CC1", "Ki": 14}
{"smiles": "CCN(CC)Cc1ccccc1N1CCN(C(=O)[C@@H](Cc2ccc(Cl)cc2)NC(=O)[C@H]2Cc3ccccc3CN2)CC1", "Ki": 14}
{"smiles": "CCN(CC)CC(c1ccccc1)N1CCN(C)CC1", "note": "(configuration not stated)", "Ki": 90}
